We go through three molecules from patent US20110091931A1, “Methods and Kits for Determining Oxygen Free Radical (OFR) Levels in Animal and Human Tissues as a Prognostic Marker for Cancer and Other Pathophysiologies” (COLBY PHARMACEUTICAL COMPANY, priority 2009, published 2011).

“Also recorded” adds a separate entry of the source.

Series [1] deals with LNCaP cells. Put plainly: HPLC quantitation of polyamine and acetyl polyamine levels in LNCaP cells. It counts as cell-based, human. The source says:
This method is routinely used in the analytical laboratory of the core facility of Cancer Centers and was accessible for quantitative assays necessary for the PK/PD determinations. […] Each data point was an average of two determinations where sample cell pellets were collected from three independent experiments.

Series [2] concerns LNCaP cells. Put plainly: DCF dye oxidation assay of androgen (R1881) induced ROS production. It is filed as cell-based, human. How it is done: SSAT induction is a major source of androgen induced oxidative stress. In order to confirm that SSAT was the major source of androgen induced oxidative stress, we developed and used a stable LNCaP cell clone transfected with plasmid transcribing siRNA designed to silence SSAT mRNA expression. The SSAT mRNA level in these cells was determined by qRT-PCR method. In the cells transfected only with the vector, the SSAT mRNA level increased by over 8-fold after 96 h treatment with R1881, whereas in cells stably transfected with SSAT siRNA (si22), R1881 under similar treatment condition induced less than 2-fold increase in the SSAT transcript, showing over 75% silencing of SSAT mRNA expression. The ROS production induced by androgen analog R1881 in these cells was measured by DCF dye oxidation assay. The green fluorescence of oxidized DCF in androgen treated LNCaP cells was shown. The effect of SSAT silencing on the R1881 induced ROS production measured by DCF assay was also shown. The ratio of DCF fluorescence (green):DNA fluorescence (blue) for each of the treated well of a 96 well plate normalized to that of the average of control untreated wells represents the ROS level per cell relative to that in control untreated cells. The data points are the mean of numbers obtained from repeat experiments using thirty identically treated wells.
Each data point was an average of readings from six wells repeated twice in triplicates. […] The ROS levels of all CPC-200 pretreated cells were normalized to the ROS levels of cells treated with CPC-200 alone.

Series [3] deals with prostate tissue in TRAMPxFVB animals. Put plainly: In vivo hydroethidine (HEt) dye oxidation in prostate tissue. Also noted: species or system mouse. An excerpt: In parallel to standardizing and validating quantitation of cellular fluorescence intensities with the Bioimager system, we also standardized conditions for fluorescence dye oxidation in animal tissues in vivo and in human tissue ex vivo using standard fluorescence microscopy. For these studies, another dye hydroethidine (HEt) was used. HEt in reduced form is colorless. It is oxidized by the ROS superoxide to ethidium (E^+). The intense fluorescence of E^+ion can be monitored at 488 excitation/595 emission frequencies at sub-nanomolar concentrations. […] After sacrifice, animals were exsanguinated to reduce fluorescence interference from blood hemoglobin. […] Unlike what observed in DCF dye oxidation assay in LNCaP cells where nuclei are more fluorescent than are the cytoplasms (FIG. 5B), the HEt dye fluorescence in the cytoplasm of the normal prostatic lumen is more than that in the nuclei. […] This is ascertained when the fluorescence intensities of HEt dye in the human tumor and normal tissue ROS are quantitated, as described herein.
We standardized the in vivo method of Hydroethidine (HEt) dye oxidation. […] Prostate tissues in paraffin blocks were sectioned on a microtome, thin sections were de-paraffinized and observed under a fluorescence microscope at 480 nm excitation and 600 nm emission wavelengths. […]

The test system of a further series is TRAMP tumors. As to the kind of experiment: Chemopreventive efficacy against TRAMP tumors (tumor development, survival, PET-CT). It counts as in vivo, mouse. How it is done: Mice are treated with the optimal dose regimen and A cohort of 10 mice from each treatment will be euthanized at 24 weeks of age, when primary tumors are evident in the control group and the tumors collected for pharmacology, necropsy and other toxicity and tumor burden analyses. […] The remaining 20 mice per condition were followed for survival. Body weights and tumor volumes were measured once weekly throughout the study. A cohort of 10 mice in this treatment group is also monitored over the course of drug treatment by PET-CT scan for tumor growth and metastases. Each mouse is injected with ^124I labeled NM-404 per standard protocol and imaged on the microPET-microCT scanner.

Series [4] is described as follows: Observed adverse side effects of CPC-200 treatment in vivo.
The conditions of series [5]: in vivo, iv.
Another series addresses T1, androgen receptor (Homo sapiens, UniProt P10275, T878A).
T1 construct: androgen receptor in human LNCaP prostate cancer cells in laboratory studies; host or cells: LNCaP
T1 sequence (P10275 1-920 T878A): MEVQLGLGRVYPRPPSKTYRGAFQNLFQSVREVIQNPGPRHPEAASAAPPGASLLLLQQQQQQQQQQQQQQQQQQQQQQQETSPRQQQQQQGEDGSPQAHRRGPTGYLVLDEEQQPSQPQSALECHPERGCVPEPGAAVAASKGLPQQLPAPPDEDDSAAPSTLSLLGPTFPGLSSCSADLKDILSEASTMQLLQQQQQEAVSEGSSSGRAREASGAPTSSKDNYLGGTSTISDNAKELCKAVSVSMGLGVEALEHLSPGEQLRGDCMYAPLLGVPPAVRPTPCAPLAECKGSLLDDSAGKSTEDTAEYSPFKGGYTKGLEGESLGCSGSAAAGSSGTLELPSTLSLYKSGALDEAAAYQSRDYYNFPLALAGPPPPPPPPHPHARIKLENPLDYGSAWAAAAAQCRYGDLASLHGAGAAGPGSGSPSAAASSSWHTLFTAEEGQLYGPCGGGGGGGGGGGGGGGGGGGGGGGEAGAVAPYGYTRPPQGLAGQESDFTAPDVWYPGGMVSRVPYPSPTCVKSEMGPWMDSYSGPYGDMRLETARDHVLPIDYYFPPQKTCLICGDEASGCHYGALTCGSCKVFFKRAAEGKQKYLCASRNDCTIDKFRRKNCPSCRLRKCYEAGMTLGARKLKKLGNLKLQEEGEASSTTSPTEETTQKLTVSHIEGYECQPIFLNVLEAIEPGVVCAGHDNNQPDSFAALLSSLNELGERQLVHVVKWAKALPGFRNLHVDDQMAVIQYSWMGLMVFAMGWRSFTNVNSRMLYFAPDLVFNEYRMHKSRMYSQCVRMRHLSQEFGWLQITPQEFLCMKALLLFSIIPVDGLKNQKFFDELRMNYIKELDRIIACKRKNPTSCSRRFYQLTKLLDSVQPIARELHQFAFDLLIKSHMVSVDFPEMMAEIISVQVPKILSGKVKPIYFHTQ
Particulars: human LNCaP prostate cancer cells; cited from earlier work.

The subject of series [6] is cytochrome P450 (CYP) class of enzymes. The conditions noted are these: compared with I3C; cited from earlier work.
For another series, the system named is prostate cancer cells. Particulars: cited from earlier work.

As to “N,N′-bis(butadienyl)-1,4-butanediamine [CPC-200]”, the “R1881 induced increase in putrescine and spermidine” value with LNCaP cells [1] (24 h CPC-200 pretreatment of R1881-treated cells) is “almost completely blocked”. In addition, in the series with LNCaP cells [1] (CPC-200 treatment alone), the “effect on most cellular polyamine levels” value was “little or no significant effect”. In the series with LNCaP cells [2] (LNCaP cells, 24 h pretreatment with 25 μM CPC-200, R1881 96 h), the “R1881 (≧1 nM) induced ROS production” value is on record as “effectively blocked”. In addition, in the series with LNCaP cells [2] (LNCaP cells, CPC-200 treatment alone (25 μM)), the “cellular ROS levels” value is on record as “minor decrease”. Also, the “androgen-induced oxidative stress in cultured androgen-dependent human prostate cancer cells” value in the series with LNCaP cells [2] (summary statement) is on record as “significantly reduces oxidative stress; also recorded: almost completely blocked”. Moreover, the “oxidative stress in prostate tissue / pre-neoplastic lesions in vivo” value in series [3] (TRAMP model, summary statement) was “significantly reduces oxidative stress; also recorded: unambiguous reduction in oxidative stress”. Further, the “HEt reporter dye monitored oxidation in prostatic tissue” value in series [3] (TRAMPxFVB mice, six administrations of 25 mg/kg CPC-200 i.p. once every two weeks, HEt 8 mg/kg i.v.) is reported as “no significant HEt reporter dye monitored oxidation is detected”. Further, the overall survival result in the series with TRAMP tumors (TRAMP mice) is “greatly increases; also recorded: markedly increased”. The “time to spontaneous prostate tumor development” value in the series with TRAMP tumors (TRAMP model) is “markedly delays; also recorded: greatly delayed”. In addition, the “prostate tumor by PET-CT scan” value with TRAMP tumors (TRxF male mice, scans at age 8, 12, 18 and 24 weeks) is “no prostate tumor”. Besides, the adverse side effects entry in series [4] is reported as “without any observable adverse side effects”.

For the molecule `CCN1c2cc(N)ccc2-c2ccc(N)cc2C1c1ccccc1` (centres unmarked) [HEt, hydroethidine], in [5], the “safety of i.v. injection” value is “can be safely injected i.v”.

Consider `c1ccc2c(Cc3c[nH]c4ccccc34)c[nH]c2c1` [DIM, 3,3′-Diindolylmethane], for which, at androgen receptor, the androgen receptor activation entry was “block androgen receptor activation” and the “binding of dihydrotestosterone (DHT) to the androgen receptor” value is “decreased binding”. In [6], the “induction of cytochrome P450 (CYP) class of enzymes” value was “to a lesser extent than does I^3C”. The PSA entry in the series on prostate cancer cells is listed as “downregulation of PSA”. The “proliferation of prostate cancer cells” value in the series with prostate cancer cells (in vitro and in a mouse xenograft model) is “inhibition of proliferation”.
